From patent publication US7893092B2, “Anthranilamide derivatives as insecticides” (Syngenta Crop Protection, Inc., priority 2004, dated 2011) come the findings set out here.

The subject of one data set is Myzus persicae. Kind of data set: Activity against Myzus persicae, foliar application (Example B5). The data set is classed as in vivo. Conditions: pea seedlings sprayed, 400 ppm active ingredient, 20°, 3 and 6 days, read-out: percentage reduction in the population (% activity). The procedure:
Pea seedlings are infected with Myzus persicae, subsequently sprayed with a spray mixture comprising 400 ppm of active ingredient and then incubated at 20°. 3 and 6 days later, the percentage reduction in the population (% activity) is determined by comparing the number of dead aphids between the treated and untreated plants.

The test system of a further data set is Spodoptera littoralis. Kind of data set: Activity against Spodoptera littoralis (Example B8). Conditions: 72 h, young soya plants sprayed, 400 ppm active ingredient, 1st instar caterpillars, 3 days, read-out: percentage reduction in the population and in the feeding damage (% activity). In kind it is in vivo. The procedure:
Young soya plants are sprayed with an aqueous emulsion spray mixture comprising 400 ppm of active ingredient and, after the spray coating has dried on, populated with 10 caterpillars (1st instar) of Spodoptera littoralis and introduced into a plastic container. 3 days later, the percentage reduction in the population and in the feeding damage (% activity) are determined by comparing the number of dead caterpillars and the feeding damage between the treated and untreated plants.

Another data set concerns Diabrotica balteata. Kind of data set: Activity against Diabrotica balteata (Example B2). In kind it is in vivo. Conditions: 144 h, maize seedlings sprayed, 400 ppm active ingredient, 2nd instar larvae, 6 days, read-out: percentage reduction in the population (% activity). As to the method:
Maize seedlings are sprayed with an aqueous emulsion spray mixture comprising 400 ppm of active ingredient and, after the spray coating has dried on, populated with 10 larvae (2nd instar) of Diabrotica balteata and introduced into a plastic container. 6 days later, the percentage reduction in the population (% activity) is determined by comparing the number of dead larvae between the treated and untreated plants.

In another data set the test system is Plutella xylostella. Description: Activity against Plutella xylostella (Example B7). In kind it is in vivo. Conditions: 72 h, young cabbage plants sprayed, 400 ppm active ingredient, 3rd instar caterpillars, 3 days, read-out: percentage reduction in the population and in the feeding damage (% activity). As to the method: Young cabbage plants are sprayed with an aqueous emulsion spray mixture comprising 400 ppm of active ingredient and, after the spray coating has dried on, populated with 10 caterpillars (3rd instar) of Plutella xylostella and introduced into a plastic container. 3 days later, the percentage reduction in the population and in the feeding damage (% activity) are determined by comparing the number of dead caterpillars and the feeding damage between the treated and untreated plants.

A further data set deals with Heliothis virescens. Kind of data set: Activity against Heliothis virescens, foliar application (Example B3). The data set is classed as in vivo. The following applies: 144 h, young soya plants sprayed, 400 ppm active ingredient, 1st instar caterpillars, 6 days, read-out: percentage reduction in the population and in the feeding damage (% activity). The procedure:
Young soya plants are sprayed with an aqueous emulsion spray mixture comprising 400 ppm of active ingredient and, after the spray coating has dried on, populated with 10 caterpillars (1st instar) of Heliothis virescens and introduced into a plastic container. 6 days later, the percentage reduction in the population and in the feeding damage (% activity) are determined by comparing the number of dead caterpillars and the feeding damage between the treated and untreated plants.

SMILES strings stand for the structures.

In general, melting point refers to the temperature of the solid-liquid transition. On to `Cc1cc(Cl)cc(C(=O)NC(C)(C)CS(C)(=O)=NC(=O)C(F)(F)F)c1NC(=O)c1cc(C(F)(F)F)nn1-c1ncccc1Cl` (stereo not drawn) [T3.1.1], for which the melting point lay within 112 to 115 °C. Also, in the data set on Myzus persicae, the inhibition at 400 ppm was above 80%. The inhibition at 400 ppm with Spodoptera littoralis was above 80%. In addition, the inhibition at 400 ppm in the data set on Diabrotica balteata is above 80%. For the same compound, in the data set with Plutella xylostella, the inhibition at 400 ppm is above 80%. The inhibition at 400 ppm in the data set on Heliothis virescens was above 80%.
